Data reported in PMC11597386, “Pharmacokinetics and Quantitative Structure–Pharmacokinetics Relationship Study of Xanthine Derivatives with Antidepressant, Anti-Inflammatory, and Analgesic Activity in Rats” (Pharmaceutics, 2024).
Read-outs that look alike come from different tables or passages of the source.

What was measured:
[1] = Pharmacokinetics after single intravenous administration to cannulated rats, noncompartmental analysis; assay type: in vivo, rat; details: for clearance / half-life / Vd: male, Wistar, rat, plasma, iv; for clearance: read-out: CL, total body clearance; for half-life: read-out: t0.5λz, terminal half-life; for Vd: read-out: Vz, volume of distribution based on the terminal phase
Experimental: Male Wistar rats, 15–17 weeks of age and weighing between 250 and 350 g, purchased from the Animal Facility of the Jagiellonian University Medical College, Krakow, Poland, were used in all experiments. They were kept under conditions of constant temperature (21–25 °C) and relative humidity of approximately 40–65% with a standard light/dark cycle. Animals were housed in stainless steel cages with suspended wire mesh floors (maximum of 5 rats per cage) with free access to distilled water and the commercial rodent chaw. All study protocols were approved by the First Local Ethical Committee on Animal Testing of the Jagiellonian University (licenses no. Zi/604/2011 and 13/2014).
Three days prior to the experiment, the rat’s jugular vein was cannulated (SAI Infusion Technologies, Lake Villa, IL, USA), allowing for multiple blood samples from a single animal. […] The doses were selected based on the results of our previous studies on rats and mice. Four rats per compound were used. Multiple blood samples were taken over a period of at least 120 min into heparinized tubes; plasma was separated by centrifugation (Universal 32, Hettich, Germany) at 1400× g for 20 min and stored at −80 °C until analysis.
(§1) For the purpose of the quantitative analysis of free and total plasma concentrations of studied compounds, different analytical methods were developed. Theo was extracted from the biological samples by liquid–liquid extraction using dichloromethane. The mixture consisting of 100 μL of rat plasma or ultrafiltrate, 10 μL of theobromine (25 μg/mL in methanol) used as IS, 20 μL of 0.1 M HCl, and 5 mL of dichloromethane was agitated on a shaker (VXR Vibrax, IKA, Staufen, Germany) and subsequently centrifuged for 20 min at 3000 rpm (Universal 32, Hettich, Germany). A clear supernatant (4 mL) was transferred into a glass conical tube and evaporated to dryness under a stream of nitrogen in a water bath at 37 °C. The residue was then reconstituted in 100 μL of methanol, vortexed for 30 s, and the solution was transferred into the automatic sampler vials. Finally, 10–50 μL aliquot was injected into the HPLC/DAD system (LaChrome Elite, Merck-Hitachi, Germany). Chromatographic separation was performed on the LiChrospher 100 RP-18 (250 × 4 mm i.d., 5 µm particle size) analytical column coupled with a LiChroCART® guard column (4.0 × 4.0 mm, 5 μm) from Merck (Darmstadt, Germany). The mobile phase consisted of a mixture of methanol and deionized water (20:80, v/v) and was pumped through the system at a flow rate of 1.0 mL/min. The peaks were detected by a DAD detector at the wavelength of 271 nm. […] The analytical run lasted 20 min.
Plasma or ultrafiltrate samples containing PTX or (R)-LSF were placed in a glass tube and spiked with 10 µL of the IS solution (100 µg/mL temazepam in methanol). Samples were then acidified with 20 µL of 0.1 M hydrochloric acid, and 3 mL of dichloromethane was added to each sample. Tubes were shaken for 20 min and subsequently centrifuged (2000× g, 20 min). Then, 2.5 mL of dichloromethane was transferred to a clean glass conical tube and evaporated under a gentle stream of nitrogen in a water bath at 37 °C. The dried residue was dissolved in 100 µL of the mobile phase, and 50 µL of this solution was injected into the HPLC column. Analysis was performed on a 250 × 4.6 mm Chiralpak AD column (Daicel Corp., Tokyo, Japan) with 10 μm particle size, protected with a 20 × 4.6 mm LC-Si guard-column (Supelco Inc., Bellefonte, PA, USA). Mobile phase consisted of hexane: 2-propanol, 84:16 (v/v), and 0.01% diethylamine and was pumped at a flow rate of 1.4 mL/min. Calibration curves were linear in a range of 0.1–50 mg/L. The retention times of IS, PTX, and (R)-LSF were 7, 16, and 20 min, respectively. […]

[2] = Plasma protein binding / unbound fraction by ultrafiltration of plasma collected 15 min after i.v. administration; assay type: in vitro ADME; details: male, Wistar, rat, intravenous
Experimental: The free concentrations of studied compounds in plasma were determined and unbound fraction (fu) was calculated in all available plasma samples obtained 15 min after the intravenous administration. At this time point, 500–600 µL of blood was collected and plasma samples obtained were divided into two portions: 150–200 µL for measurement of free compound concentrations and 100 µL for measurement of the total drug concentrations. Plasma proteins were separated by an ultrafiltration method using Centrifree® devices with Ultracel PL regenerated cellulose membrane, 30,000 NMWL (Merck, Germany). For direct measurement of the free concentrations of compounds, each plasma sample was transferred to a sample reservoir of the disposable filter unit and centrifuged (1000× g) for 20 min at 25 °C. An aliquot of the ultrafiltrate was directly subjected to analysis. Free and total compound concentrations were measured by a high-performance liquid chromatography method with diode-array detection (HPLC-DAD) or liquid chromatography with tandem mass spectrometry (LC-MS/MS).
as §1, with “Theo was extracted from the biological samples by liquid–liquid extraction using dichloromethane.” left out
Plasma or ultrafiltrate samples containing PTX or (R)-LSF were placed in a glass tube and spiked with 10 µL of the IS solution (100 µg/mL temazepam in methanol). Samples were then acidified with 20 µL of 0.1 M hydrochloric acid, and 3 mL of dichloromethane was added to each sample. Tubes were shaken for 20 min and subsequently centrifuged (2000× g, 20 min). Then, 2.5 mL of dichloromethane was transferred to a clean glass conical tube and evaporated under a gentle stream of nitrogen in a water bath at 37 °C. The dried residue was dissolved in 100 µL of the mobile phase, and 50 µL of this solution was injected into the HPLC column. Analysis was performed on a 250 × 4.6 mm Chiralpak AD column (Daicel Corp., Tokyo, Japan) with 10 μm particle size, protected with a 20 × 4.6 mm LC-Si guard-column (Supelco Inc., Bellefonte, PA, USA). Mobile phase consisted of hexane: 2-propanol, 84:16 (v/v), and 0.01% diethylamine and was pumped at a flow rate of 1.4 mL/min. […] HPLC system (Thermo Separation Product, San Jose, CA, USA) consisted of a UV/VIS spectrophotometric detector (Spectra 100) with absorbance set at 275 nm, P100 pump, and Rheodyne 7125 manual injector (Alltech Associates, Deerfield, IL, USA) with a 50 µL sample loop. Chromatograms were recorded and integrated with an SP 4400 ChromJet integrator (San Jose, CA, USA).

[3] = test system: plasma proteins; design: method as in earlier work; details: cited from earlier work
[4] = male Wistar rats, single i.v. dose (50 mg/kg Theo; 40 mg/kg PTX, LSF; 5 mg/kg GR-1 to GR-5; 2 mg/kg GR-6 to GR-8), geometric mean, n = 4
[5] = rat plasma 15 min after i.v. administration, ultrafiltration, geometric mean, n = 4, read-out: fb, fraction bound to plasma proteins (converted)
[6] = rat plasma 15 min after i.v. administration, ultrafiltration, geometric mean, n = 4, read-out: fu, fraction unbound in plasma
[7] = rat plasma proteins, read-out: percent of plasma protein binding (converted)

Row | Compound | Vss, volume of distribution at steady-state [1, 4] [L/kg] | Vz, volume of distribution based on the terminal phase [1, 4] [L/kg] | clearance [1] [mL/min/kg] | half-life [1] [min] | fraction unbound at 15 min [2, 5] | fraction unbound at 15 min [2, 6] | Vd [1] [L/kg] | fraction unbound at 15 min [2, 7] | percent of plasma protein binding [3]
1 | COc1nc2c(c(=O)n(C)c(=O)n2C)n1CCCC(=O)O [GR-6] | 0.49 | 1.06 | 43.1 | 17.1 | 0.31 | 0.31 | – | – | –
2 | CC(=O)CCCCn1c(=O)c2c(ncn2C)n(C)c1=O [PTX, pentoxifylline, reference compound] | 0.92 | – | 55.5 | 14.7 | 0.19 | 0.19 | 1.18 | – | –
3 | COc1ccccc1N1CCN(CCCCCn2cnc3c2c(=O)n(C)c(=O)n3C)CC1 [GR-3] | – | – | 23.6 | 49.8 | 0.28 | 0.28 | 1.7 | 0.28 to 0.29 | –
4 | COC(=O)Cn1c(=O)[nH]c2c1c(=O)n(C)c(=O)n2C [GR-8] | 0.33 | – | 68.1 | 6.75 | 0.14 | 0.14 | 0.66 | – | –
5 | CCOc1nc2c(c(=O)n(C)c(=O)n2C)n1CCCC(=O)NN [GR-5] | 0.78 | – | 25.3 | 39 | 0.89 | 0.89 | 1.43 | 0.89 | –
6 | Cn1c(=O)c2c(ncn2CCCCCN2CCN(c3cccc(Cl)c3)CC2)n(C)c1=O [GR-4] | – | – | 26.4 | 50 | 0.06 | 0.06 | 1.9 | – | –
7 | C[C@@H](O)CCCCn1c(=O)c2c(ncn2C)n(C)c1=O [(R)-LSF, R-lisofylline, reference compound] | 0.78 | – | 22.1 | 25.7 | 0.79 | 0.79 | 0.82 | 0.79 | –
8 | Cn1c(=O)c2c(ncn2CCCCCN2CCN(c3ccccc3)CC2)n(C)c1=O [GR-2] | – | – | 29.6 | 35.6 | 0.29 | 0.29 | 1.52 | 0.28 to 0.29 | –
9 | COc1nc2c(c(=O)n(C)c(=O)n2C)n1CCCC(=O)NCc1ccccc1 [GR-7] | 0.78 | – | 43.2 | 15.2 | 0.13 | 0.13 | 0.95 | – | –
10 | Cn1c(=O)c2c(ncn2CCCCN2CCN(c3cccc(Cl)c3)CC2)n(C)c1=O [GR-1] | – | – | 33.1 | 45.4 | 0.08 | 0.08 | 2.17 | – | –
11 | Cn1c(=O)c2c(ncn2CC(O)CO)n(C)c1=O (centres unmarked) [diprophyllinum] | – | – | – | – | – | – | – | – | 84–90%
12 | Cn1c(=O)c2[nH]cnc2n(C)c1=O [Theo, theophylline, reference compound] | 0.72 | – | 2.14 | 236 | – | – | 0.73 | – | –
